Measured values as given in patent publication US7807777B2, “Marker peptide for alzheimer's disease” (Immuno-Biological Laboratories Co., Ltd., priority 2003, dated 2010).

Assays:
presenilin [1] = test: Western blotting of cell lysates of HEK293 cells expressing APP695, Alcα, Alcβ or Alcγ, with or without presenilin inhibitor; format: cell-based; conditions: 1 μl of 1 mM DMSO solution per 1 ml culture medium, 24 hrs
Experimental: A DNA encoding Alcα, Alcβ, Alcγ, or APP695 (an isoform of human APP consisting of 695 amino acids) was inserted into a mammalian expression vector pcDNA3.1 (Invitrogen).
(§1) HEK293 cells were seeded in DMEM (D5796: Sigma) containing 10% fetal bovine serum in a 6-well culture plate (area of base: 10 cm^2) and transfected with the expression vector prepared above by using a transfection reagent (LipofectAMINE 2000: Invitrogen). As a control, HEK293 cells were similarly transfected with an empty pcDNA3.1 vector.
One microliter of a DMSO solution containing 1 mM of a presenilin inhibitor L-685,458 (Calbiochem) was added to 1 ml of the culture medium. After the incubation for 24 hrs, a sample of the culture medium was taken. As a control, an equal quantity of DMSO instead of the L-685,458 solution was added to the culture medium and similarly incubated. Then, a sample of the culture medium was taken. The sample of the culture medium was added to 1 ml of HBST buffer (10 mM HEPES of pH 7.4, 150 mM sodium chloride, 0.5% Triton X-100, 5 μg/ml chymostatin, 5 μg/ml leupeptin, and […]) for extracting proteins of the cells. The solubilized cells were centrifuged (12000×g, 10 min) and supernatant was collected to recover the solubilized components. The solubilized components (7.5 μl) were added to 7.5 μl of a sample-buffer mixture (a mixture of 5 μl of 5×SDS sample buffer and 2.5 μl of 8 M urea solution) and boiled for 5 min. This sample was subjected to SDS-PAGE of 8/15% 2-stage gel and then the proteins were transferred on a nitrocellulose membrane for conducting Western blotting. The SDS-PAGE was performed according to the general method of Laemmli. As the primary antibody, an anti-APP cytoplasmic domain antibody (G369, 1/2000 dilution), anti-Alcα antibody (UT83, 0.3 μg/ml), anti-Alcβ antibody (UT99, 0.5 μg/ml), and anti-Alcγ antibody (UT105, 1/500 dilution) were used. The detection was performed by using an ECL kit (Pharmacia). The UT99 and UT105 are antibodies recognizing the C-terminals of Alcβ and Alcγ, respectively. FIG. 6 and FIG. 7A to C show the results.

presenilin [2] = test: Incubation of membrane fragments of HEK293 cells expressing Alcα, Alcβ or Alcγ, Western blotting with anti-Alc antibodies; format: biochemical; conditions: Alcβ and Alcγ, final concentration 1 μM, 37° C. for 1 or 3 hrs, FIG. 8A to C
Experimental: DNAs encoding Alcα, Alcβ, or Alcγ were each inserted into a mammalian expression vector pcDNA3.1 (Invitrogen).
as §1, with “DMEM” for “DMEM (D5796: Sigma)”, “a 10-cm” for “a 6-well”, “base: 60” for “base: 10”, “were” for “were similarly”
After the incubation for 24 hrs, the culture medium was removed and the cells were washed with ice-cooled PBS. Then, 10 ml of PBS was added again. The cells were detached from the plate by pipetting and transferred into a 15 ml Falcon tube. The cells were collected by centrifugation (1500 rpm, 10 min, low-speed refrigerated centrifuge: Beckmann) as a pellet of the cells. One milliliter of buffer D (0.25 M sucrose, 10 mM triethanolamine-acetate of pH 7.8, 5 μg/ml chymostatin, 5 μg/ml leupeptin, and 5 μg/ml pepstatin) was added to the pellet of the cells, and the cells were broken by 12 passages through a 27 G needle. Then, the broken cells were centrifuged with a TOMY TMA-6 rotor at 3000 rpm (1000×g) for 10 min at 4° C. to remove unbroken cells and nuclei and to obtain a nucleus-removed cell homogenate. […]

With `CC(C)C[C@H](NC(=O)[C@H](Cc1ccccc1)C[C@@H](O)[C@H](Cc1ccccc1)NC(=O)OC(C)(C)C)C(=O)N[C@@H](Cc1ccccc1)C(N)=O` [L-685,458] the “C-terminal fragment (CTFα) of APP in the cell lysate” value (presenilin [1]; HEK293 cells expressing APP695, FIG. 6) was “a large amount of the C-terminal fragment (CTFα) was detected in the cell lysate only when the presenilin inhibitor (L-685,458) was added”, the “C-terminal fragment (CTF1) of Alcα in the cell lysate” value (presenilin [1]; HEK293 cells expressing Alcα, FIG. 7A) was “C-terminal fragments (CTF1) were detected only when the presenilin inhibitor was added” and the “C-terminal fragment of Alcβ in the cell lysate” value (presenilin [1]; HEK293 cells expressing Alcβ, FIG. 7B) was “detected even when the presenilin inhibitor was not added”. For the same compound, the “C-terminal fragment (CTF1) of Alcγ in the cell lysate” value (presenilin [1]; HEK293 cells expressing Alcγ, FIG. 7C) was “C-terminal fragments (CTF1) were detected only when the presenilin inhibitor was added” and the “fragments (such as Alcα-ICD) containing the C-terminal of each Alc” value (presenilin [2]) was “such fragments were not detected”.
